In assay [1] the test system is Mycobacterium tuberculosis H37Rv. Description: Mycobacterium tuberculosis H37Rv Inhibition Assay (Whole Cell Assay). Format: cell-based. The following applies: ATCC 25618 / H37Rv, H37Rv strain (ATCC25618), Middlebrook 7H9, six days at 37° C., resazurin fluorescence after 48 hours.
The target in assay [2] is T1, Mycobacterium tuberculosis InhA (Mycobacterium tuberculosis, UniProt P9WGR1).
T1 construct: made in house; host or cells: E. coli
Description: Mycobacterium tuberculosis InhA Inhibition Assay (Enzyme Assay). Format: biochemical. The following applies: 5 nM InhA, 50 μM DDCoA, 50 μM NADH, PIPES buffer pH 6.8, initial velocities of NADH consumption. In outline:
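Recombinant Mtb InhA (E. coli-expressed), 5 nM, with 50 μM dodecenoyl-CoA and 50 μM NADH in 30 mM PIPES pH 6.8, 0.05% BSA; reaction started with enzyme. NADH fluorescence (ex 340/em 480 nm) followed 20 min at room temperature; IC50 from initial velocities of NADH consumption.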

Converted amounts (≈) assume the structure as drawn. Like-named read-outs stand apart in the source and are kept apart here. A value given as a limit tells only on which side of the number the result lay.

T1 sequence (P9WGR1 whole entry, looked up): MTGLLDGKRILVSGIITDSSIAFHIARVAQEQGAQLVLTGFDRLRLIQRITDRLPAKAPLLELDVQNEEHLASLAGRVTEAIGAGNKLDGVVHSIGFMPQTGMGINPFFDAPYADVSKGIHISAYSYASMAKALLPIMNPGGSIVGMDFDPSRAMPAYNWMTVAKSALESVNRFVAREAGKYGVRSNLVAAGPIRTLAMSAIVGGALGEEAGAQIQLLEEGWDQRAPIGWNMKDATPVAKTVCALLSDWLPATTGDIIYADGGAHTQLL

Take `Cc1cc(C)n(C(C)c2nnc(Nc3ccn(Cc4c(F)cccc4Cl)n3)s2)n1` (racemic) [Example 28, N-{1-[(2-chloro-6-fluorophenyl)methyl]-1H-pyrazol-3-yl}-5-[1-(3,5-dimethyl-1H-pyrazol-1-yl)ethyl]-1,3,4-thiadiazol-2-amine]: in assay [1], the MIC (in general, the lowest concentration found to suppress growth) is at most 1 µM. Besides, the IC50 (as a rule, the point on the concentration scale where inhibition reaches its midpoint) in assay [2] (read-out: IC50 value) was under 116 nM.
`FC(F)(F)c1ccn(Cc2nnc(Nc3ccn(Cc4ccccc4)n3)s2)n1` [Example 61, N-[1-(phenylmethyl)-1H-pyrazol-3-yl]-5-{[3-(trifluoromethyl)-1H-pyrazol-1-yl]methyl}-1,3,4-thiadiazol-2-amine]: in assay [1], the MIC was over 10 µM. The IC50 in assay [2] (read-out: IC50 value) was in the range of 247 to 1230 nM.
Taken in the same sequence, the figures for `Cc1cc(C)n(C(C)c2nnc(Nc3ccn(Cc4cccc(F)c4F)n3)s2)n1` (stereo not shown) [Example 10, N-{1-[(2,3-difluorophenyl)methyl]-1H-pyrazol-3-yl}-5-[1-(3,5-dimethyl-1H-pyrazol-1-yl)ethyl]-1,3,4-thiadiazol-2-amine] were at most 1 µM and under 120 nM.
Taken in the same sequence, the figures for `Cc1cc([N+](=O)[O-])nn1Cc1nnc(Nc2ccn(Cc3c(F)cccc3Cl)n2)s1` [Example 50, N-{1-[(2-chloro-6-fluorophenyl)methyl]-1H-pyrazol-3-yl}-5-[(5-methyl-3-nitro-1H-pyrazol-1-yl)methyl]-1,3,4-thiadiazol-2-amine] were over 10 µM and under 111 nM.
Taken in the same sequence, the figures for `Cc1cc(C)n(C(C)c2nnc(Nc3ccn(Cc4c(Cl)ccc(C)c4F)n3)s2)n1` (stereo not shown) [Example 22, N-{1-[(6-chloro-2-fluoro-3-methylphenyl)methyl]-1H-pyrazol-3-yl}-5-[1-(3,5-dimethyl-1H-pyrazol-1-yl)ethyl]-1,3,4-thiadiazol-2-amine] were 1 to 4 µM (≈ 0.446 to 1.78 µg/mL) and under 112 nM.
As for `Cc1ccn(Cc2nnc(Nc3ccn(Cc4c(F)cccc4Cl)n3)s2)n1` [Example 39, N-{1-[(2-chloro-6-fluorophenyl)methyl]-1H-pyrazol-3-yl}-5-[(3-methyl-1H-pyrazol-1-yl)methyl]-1,3,4-thiadiazol-2-amine], in assay [1], the MIC lay in the range of 1 to 4 µM (≈ 0.404 to 1.62 µg/mL). Further, the IC50 in assay [2] (read-out: IC50 value) was under 124 nM.
Taken in the same sequence, the figures for `Cc1cc(C)n(Cc2nnc(Nc3ccn(Cc4c(Cl)cccc4Cl)n3)s2)n1` [Example 53, N-{1-[(2,6-dichlorophenyl)methyl]-1H-pyrazol-3-yl}-5-[(3,5-dimethyl-1H-pyrazol-1-yl)methyl]-1,3,4-thiadiazol-2-amine] were over 10 µM and under 115 nM.
For `Cc1cc(C)n(C(C)c2nnc(Nc3ccn(Cc4ccccc4)n3)s2)n1` (stereo not shown) [Example 21, 5-[1-(3,5-dimethyl-1H-pyrazol-1-yl)ethyl]-N-[1-(phenylmethyl)-1H-pyrazol-3-yl]-1,3,4-thiadiazol-2-amine], in that order: 4 to 10 µM (≈ 1.52 to 3.79 µg/mL) and under 132 nM.
On to `Cc1cc(C)n(C(C)c2nnc(Nc3ccn(Cc4c(F)ccc(C)c4Cl)n3)s2)n1` (stereo not shown) [Example 23, N-{1-[(2-chloro-6-fluoro-3-methylphenyl)methyl]-1H-pyrazol-3-yl}-5-[1-(3,5-dimethyl-1H-pyrazol-1-yl)ethyl]-1,3,4-thiadiazol-2-amine], for which the MIC in assay [1] was at most 1 µM. For the same compound, the half-inhibitory concentration (IC50) in assay [2] (read-out: IC50 value) was under 112 nM.
`Cc1cc(C)n(C(C)c2nnc(Nc3ccn(Cc4cc(F)ccc4C(F)(F)F)n3)s2)n1` (stereo not shown) [Example 9, 5-[1-(3,5-dimethyl-1H-pyrazol-1-yl)ethyl]-N-(1-{[5-fluoro-2-(trifluoromethyl)phenyl]methyl}-1H-pyrazol-3-yl)-1,3,4-thiadiazol-2-amine] registered an MIC in assay [1] of over 10 µM. For the same compound, in assay [2] (read-out: IC50 value), the IC50 was under 107 nM.
The compound `Cc1cc(C)n(C(C)c2nnc(Nc3ccn(Cc4cccc(N)c4C)n3)s2)n1` (stereo not shown) [Example 27, N-{1-[(3-amino-2-methylphenyl)methyl]-1H-pyrazol-3-yl}-5-[1-(3,5-dimethyl-1H-pyrazol-1-yl)ethyl]-1,3,4-thiadiazol-2-amine] gave an MIC in assay [1] of 4 to 10 µM (≈ 1.63 to 4.09 µg/mL). The IC50 in assay [2] (read-out: IC50 value) was under 122 nM.
`Cc1cc(C)n(C(C)c2nnc(Nc3ccn(Cc4ccc(F)cc4Cl)n3)s2)n1` (stereo not shown) [Example 17, N-{1-[(2-chloro-4-fluorophenyl)methyl]-1H-pyrazol-3-yl}-5-[1-(3,5-dimethyl-1H-pyrazol-1-yl)ethyl]-1,3,4-thiadiazol-2-amine] returned an MIC in assay [1] of over 10 µM. The compound also returned an IC50 in assay [2] (IC50 value) of 116 to 232 nM.
The compound `Cc1ccn(C(C)c2nnc(Nc3ccn(Cc4c(Cl)cccc4Cl)n3)s2)n1` (stereo not shown) [Example 54, N-{1-[(2,6-dichlorophenyl)methyl]-1H-pyrazol-3-yl}-5-[1-(3-methyl-1H-pyrazol-1-yl)ethyl]-1,3,4-thiadiazol-2-amine] showed an MIC in assay [1] of 1 to 4 µM (≈ 0.434 to 1.74 µg/mL). In addition, the IC50 in assay [2] (read-out: IC50 value) is under 115 nM.
As to `Cc1cc(C)n(C(C)c2nnc(Nc3ccn(Cc4c(F)ccc(F)c4F)n3)s2)n1` (stereo not shown) [Example 77, 5-[1-(3,5-dimethyl-1H-pyrazol-1-yl)ethyl]-N-{1-[(2,3,6-trifluorophenyl)methyl]-1H-pyrazol-3-yl}-1,3,4-thiadiazol-2-amine], the MIC in assay [1] was at most 1 µM. In addition, in assay [2] (IC50 value), the concentration for half-maximal inhibition (IC50) was under 115 nM.

The values above are taken from patent publication US8524750B2, “(Pyrazol-3-yl)-1,3,4-thiadiazol-2-amine and (pyrazol-3-yl)-1,3,4-thiazol-2-amine compounds” (Glaxo Group Limited, priority 2009, dated 2013).
